Assays:
[1] = molecular target: T1, Ephrin type-B receptor 1 (Homo sapiens) (UniProt P54762); assay: Residual activity of EPHB1 at 1 uM by microplate scintillation counting
T1 sequence (whole entry): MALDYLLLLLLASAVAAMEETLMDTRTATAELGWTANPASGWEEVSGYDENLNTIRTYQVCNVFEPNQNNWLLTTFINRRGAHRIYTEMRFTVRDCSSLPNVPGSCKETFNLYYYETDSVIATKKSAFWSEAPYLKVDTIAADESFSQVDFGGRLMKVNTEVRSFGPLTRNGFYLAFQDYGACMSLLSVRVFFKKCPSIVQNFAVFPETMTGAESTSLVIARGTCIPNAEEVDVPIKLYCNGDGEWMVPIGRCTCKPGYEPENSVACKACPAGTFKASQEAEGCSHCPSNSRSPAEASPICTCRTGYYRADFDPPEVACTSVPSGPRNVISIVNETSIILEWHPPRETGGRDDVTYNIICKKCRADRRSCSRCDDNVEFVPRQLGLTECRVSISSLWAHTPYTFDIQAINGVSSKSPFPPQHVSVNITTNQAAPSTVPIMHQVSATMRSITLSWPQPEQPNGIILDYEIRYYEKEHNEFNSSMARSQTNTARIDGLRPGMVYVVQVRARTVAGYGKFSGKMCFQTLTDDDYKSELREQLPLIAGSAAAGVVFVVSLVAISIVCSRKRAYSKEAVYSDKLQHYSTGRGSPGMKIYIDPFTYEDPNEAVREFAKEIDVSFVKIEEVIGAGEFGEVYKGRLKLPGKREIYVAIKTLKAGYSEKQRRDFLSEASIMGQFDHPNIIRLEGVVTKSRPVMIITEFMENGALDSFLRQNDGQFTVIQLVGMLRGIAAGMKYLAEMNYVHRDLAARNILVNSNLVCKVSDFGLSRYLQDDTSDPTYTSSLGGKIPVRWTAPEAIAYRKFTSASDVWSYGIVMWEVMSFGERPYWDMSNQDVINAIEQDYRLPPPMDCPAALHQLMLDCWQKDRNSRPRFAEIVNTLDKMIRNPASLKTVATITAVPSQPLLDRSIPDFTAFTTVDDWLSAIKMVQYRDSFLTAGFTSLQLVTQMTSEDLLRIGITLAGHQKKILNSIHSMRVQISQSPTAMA

[2] = system: Fibroblast growth factor receptor 1 (Homo sapiens), P11362 [V561M]; assay: Residual activity of FGFR1 V561M mutant at 1 uM by microplate scintillation counting
[3] = molecular target: Hepatocyte growth factor receptor (Homo sapiens) (UniProt P08581); assay: Residual activity of MET at 1 uM by microplate scintillation counting
Sequence of Hepatocyte growth factor receptor (Homo sapiens) (P08581 whole entry): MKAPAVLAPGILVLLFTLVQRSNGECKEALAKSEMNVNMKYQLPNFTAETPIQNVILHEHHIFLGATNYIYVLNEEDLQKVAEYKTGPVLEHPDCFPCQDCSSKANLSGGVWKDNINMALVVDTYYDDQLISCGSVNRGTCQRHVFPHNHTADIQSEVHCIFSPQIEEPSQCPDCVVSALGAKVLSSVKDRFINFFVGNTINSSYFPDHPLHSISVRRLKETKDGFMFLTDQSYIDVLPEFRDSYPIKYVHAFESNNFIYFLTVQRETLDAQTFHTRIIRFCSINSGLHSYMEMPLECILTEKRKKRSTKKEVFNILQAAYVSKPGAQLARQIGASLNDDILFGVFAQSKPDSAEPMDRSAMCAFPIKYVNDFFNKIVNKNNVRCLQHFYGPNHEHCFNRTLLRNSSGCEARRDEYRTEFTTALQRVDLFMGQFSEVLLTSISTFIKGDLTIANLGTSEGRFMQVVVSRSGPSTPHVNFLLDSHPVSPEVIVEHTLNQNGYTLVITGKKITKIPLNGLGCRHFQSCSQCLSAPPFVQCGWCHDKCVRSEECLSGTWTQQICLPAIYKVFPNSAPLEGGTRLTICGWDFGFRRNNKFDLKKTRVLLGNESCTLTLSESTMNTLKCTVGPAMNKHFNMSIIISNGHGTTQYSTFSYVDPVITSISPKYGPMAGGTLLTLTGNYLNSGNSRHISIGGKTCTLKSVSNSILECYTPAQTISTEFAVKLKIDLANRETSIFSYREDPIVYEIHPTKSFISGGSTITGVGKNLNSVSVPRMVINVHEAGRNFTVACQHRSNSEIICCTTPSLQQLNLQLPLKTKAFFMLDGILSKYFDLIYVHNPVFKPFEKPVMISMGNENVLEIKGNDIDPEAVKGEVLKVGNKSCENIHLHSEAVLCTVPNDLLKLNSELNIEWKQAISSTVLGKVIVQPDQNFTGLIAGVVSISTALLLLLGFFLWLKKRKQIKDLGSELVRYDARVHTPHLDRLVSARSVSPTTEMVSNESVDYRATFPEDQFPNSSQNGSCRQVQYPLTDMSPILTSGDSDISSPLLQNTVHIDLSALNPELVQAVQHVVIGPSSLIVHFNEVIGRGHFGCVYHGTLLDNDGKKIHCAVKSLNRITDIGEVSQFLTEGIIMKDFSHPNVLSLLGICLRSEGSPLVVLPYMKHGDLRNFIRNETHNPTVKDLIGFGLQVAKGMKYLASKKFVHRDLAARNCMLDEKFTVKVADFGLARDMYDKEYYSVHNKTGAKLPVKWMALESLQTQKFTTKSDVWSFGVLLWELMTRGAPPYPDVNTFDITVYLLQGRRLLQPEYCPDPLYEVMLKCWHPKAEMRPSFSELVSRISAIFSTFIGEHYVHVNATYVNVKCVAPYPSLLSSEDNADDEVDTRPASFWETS

[4] = molecular target: NT-3 growth factor receptor (Homo sapiens) (UniProt Q16288); assay: Residual activity of TRK-C at 1 uM by microplate scintillation counting
Sequence of NT-3 growth factor receptor (Homo sapiens) (Q16288 32-839 limits assumed): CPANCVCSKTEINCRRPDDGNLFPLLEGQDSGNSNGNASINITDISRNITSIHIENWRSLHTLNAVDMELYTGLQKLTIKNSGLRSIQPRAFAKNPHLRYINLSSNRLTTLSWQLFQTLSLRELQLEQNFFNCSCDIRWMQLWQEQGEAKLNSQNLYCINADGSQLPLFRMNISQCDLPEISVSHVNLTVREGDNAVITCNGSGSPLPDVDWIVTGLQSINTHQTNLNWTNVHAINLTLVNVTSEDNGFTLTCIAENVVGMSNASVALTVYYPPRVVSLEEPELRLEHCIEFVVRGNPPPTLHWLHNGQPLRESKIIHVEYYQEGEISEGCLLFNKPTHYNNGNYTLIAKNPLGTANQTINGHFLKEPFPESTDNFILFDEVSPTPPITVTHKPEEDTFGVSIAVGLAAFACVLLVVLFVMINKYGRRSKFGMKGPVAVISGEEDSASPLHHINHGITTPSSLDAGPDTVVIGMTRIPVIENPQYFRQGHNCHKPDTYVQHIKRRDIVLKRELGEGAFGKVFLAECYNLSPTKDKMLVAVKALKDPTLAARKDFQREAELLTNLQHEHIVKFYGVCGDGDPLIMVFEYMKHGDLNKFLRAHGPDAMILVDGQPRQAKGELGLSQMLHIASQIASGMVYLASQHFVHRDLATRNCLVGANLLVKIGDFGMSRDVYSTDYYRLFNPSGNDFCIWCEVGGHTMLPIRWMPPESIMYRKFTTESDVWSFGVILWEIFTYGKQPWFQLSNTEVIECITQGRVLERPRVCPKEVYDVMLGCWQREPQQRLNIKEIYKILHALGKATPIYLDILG

[5] = molecular target: 5'-AMP-activated protein kinase catalytic subunit alpha-1 (Homo sapiens) (UniProt Q13131); assay: Residual activity of AMPK-alpha1 fl at 10 uM by microplate scintillation counting
[6] = molecular target: T2, Inhibitor of nuclear factor kappa-B kinase subunit beta (Homo sapiens) (UniProt O14920); assay: Residual activity of IKK-beta at 10 uM by microplate scintillation counting
T2 sequence (whole entry): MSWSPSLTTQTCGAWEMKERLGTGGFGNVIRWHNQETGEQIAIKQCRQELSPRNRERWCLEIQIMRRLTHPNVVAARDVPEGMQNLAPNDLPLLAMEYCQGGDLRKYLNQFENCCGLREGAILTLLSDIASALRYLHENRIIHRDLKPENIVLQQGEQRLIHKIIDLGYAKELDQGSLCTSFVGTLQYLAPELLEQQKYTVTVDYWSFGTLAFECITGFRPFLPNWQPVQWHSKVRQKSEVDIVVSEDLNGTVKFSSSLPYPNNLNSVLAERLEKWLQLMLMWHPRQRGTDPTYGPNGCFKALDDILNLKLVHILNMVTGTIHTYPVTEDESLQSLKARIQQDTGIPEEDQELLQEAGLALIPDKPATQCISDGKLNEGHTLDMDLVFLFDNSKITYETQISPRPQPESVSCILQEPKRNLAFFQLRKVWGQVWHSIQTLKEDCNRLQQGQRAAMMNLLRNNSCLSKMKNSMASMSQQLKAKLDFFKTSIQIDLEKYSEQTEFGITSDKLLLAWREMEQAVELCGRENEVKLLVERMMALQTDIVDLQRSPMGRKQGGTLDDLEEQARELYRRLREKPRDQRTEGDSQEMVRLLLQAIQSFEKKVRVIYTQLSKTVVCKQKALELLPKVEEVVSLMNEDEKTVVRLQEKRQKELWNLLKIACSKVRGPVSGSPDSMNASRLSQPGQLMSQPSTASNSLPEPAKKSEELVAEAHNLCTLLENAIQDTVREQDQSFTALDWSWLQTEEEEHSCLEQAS

[7] = molecular target: Cyclin-dependent kinase 5/CDK5 activator 1 (Homo sapiens) (UniProt Q00535+Q15078); assay: Residual activity of CDK5/p35NCK at 10 uM by microplate scintillation counting; type: protein-complex assay
Sequence of Cyclin-dependent kinase 5/CDK5 activator 1 (Homo sapiens) (Q00535 whole entry): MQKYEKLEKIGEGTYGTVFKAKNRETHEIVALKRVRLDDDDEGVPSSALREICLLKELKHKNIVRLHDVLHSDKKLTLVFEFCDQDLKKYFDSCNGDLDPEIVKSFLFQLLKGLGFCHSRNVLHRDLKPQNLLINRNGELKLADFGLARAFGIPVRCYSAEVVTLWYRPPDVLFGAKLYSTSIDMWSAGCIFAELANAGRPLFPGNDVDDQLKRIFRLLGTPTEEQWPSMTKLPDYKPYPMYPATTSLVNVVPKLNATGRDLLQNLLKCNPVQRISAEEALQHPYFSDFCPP
Sequence of Cyclin-dependent kinase 5/CDK5 activator 1 (Homo sapiens) (Q15078 99-307 partner limits assumed): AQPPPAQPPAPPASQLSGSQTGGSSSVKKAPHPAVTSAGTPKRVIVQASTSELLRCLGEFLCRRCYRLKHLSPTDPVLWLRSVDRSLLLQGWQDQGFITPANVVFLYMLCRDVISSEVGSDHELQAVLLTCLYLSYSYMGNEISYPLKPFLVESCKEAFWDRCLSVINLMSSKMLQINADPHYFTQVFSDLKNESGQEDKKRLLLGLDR

[8] = molecular target: Ephrin type-A receptor 4 (Homo sapiens) (UniProt P54764); assay: Residual activity of EPHA4 at 0.1 uM by microplate scintillation counting
Sequence of Ephrin type-A receptor 4 (Homo sapiens) (P54764 whole entry): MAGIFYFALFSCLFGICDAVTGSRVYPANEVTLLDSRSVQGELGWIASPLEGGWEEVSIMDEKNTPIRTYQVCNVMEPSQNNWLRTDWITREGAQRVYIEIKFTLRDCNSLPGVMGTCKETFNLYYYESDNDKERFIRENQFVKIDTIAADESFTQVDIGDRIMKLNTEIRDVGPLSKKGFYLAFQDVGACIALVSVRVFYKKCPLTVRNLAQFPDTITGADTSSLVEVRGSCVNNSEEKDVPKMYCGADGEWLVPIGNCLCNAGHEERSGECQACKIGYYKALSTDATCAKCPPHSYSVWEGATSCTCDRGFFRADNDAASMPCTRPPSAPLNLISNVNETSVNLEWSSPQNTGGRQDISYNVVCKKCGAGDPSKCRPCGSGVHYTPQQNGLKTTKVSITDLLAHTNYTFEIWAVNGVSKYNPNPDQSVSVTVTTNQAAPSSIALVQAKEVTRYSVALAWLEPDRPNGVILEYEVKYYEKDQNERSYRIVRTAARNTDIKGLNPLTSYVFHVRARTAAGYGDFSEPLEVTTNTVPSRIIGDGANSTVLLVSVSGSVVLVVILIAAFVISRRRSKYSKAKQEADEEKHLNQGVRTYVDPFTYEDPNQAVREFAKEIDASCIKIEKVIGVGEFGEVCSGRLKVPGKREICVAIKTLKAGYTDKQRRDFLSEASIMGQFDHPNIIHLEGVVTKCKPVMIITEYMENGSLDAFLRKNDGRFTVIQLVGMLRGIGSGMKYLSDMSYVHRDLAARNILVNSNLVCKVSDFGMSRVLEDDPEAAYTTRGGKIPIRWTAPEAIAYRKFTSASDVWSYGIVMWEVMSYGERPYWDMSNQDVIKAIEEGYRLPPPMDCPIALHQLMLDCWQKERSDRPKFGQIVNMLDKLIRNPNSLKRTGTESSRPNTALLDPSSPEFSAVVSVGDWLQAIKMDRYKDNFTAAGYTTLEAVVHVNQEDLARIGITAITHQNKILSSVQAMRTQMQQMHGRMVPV

[9] = molecular target: Platelet-derived growth factor receptor alpha (Homo sapiens) (UniProt P16234); assay: Residual activity of PDGFRalpha at 10 uM by microplate scintillation counting
[10] = molecular target: Casein kinase I isoform gamma-1 (Homo sapiens) (UniProt Q9HCP0); assay: Residual activity of CK1gamma1 at 0.1 uM by microplate scintillation counting
Sequence of Casein kinase I isoform gamma-1 (Homo sapiens) (Q9HCP0 whole entry, looked up, canonical isoform): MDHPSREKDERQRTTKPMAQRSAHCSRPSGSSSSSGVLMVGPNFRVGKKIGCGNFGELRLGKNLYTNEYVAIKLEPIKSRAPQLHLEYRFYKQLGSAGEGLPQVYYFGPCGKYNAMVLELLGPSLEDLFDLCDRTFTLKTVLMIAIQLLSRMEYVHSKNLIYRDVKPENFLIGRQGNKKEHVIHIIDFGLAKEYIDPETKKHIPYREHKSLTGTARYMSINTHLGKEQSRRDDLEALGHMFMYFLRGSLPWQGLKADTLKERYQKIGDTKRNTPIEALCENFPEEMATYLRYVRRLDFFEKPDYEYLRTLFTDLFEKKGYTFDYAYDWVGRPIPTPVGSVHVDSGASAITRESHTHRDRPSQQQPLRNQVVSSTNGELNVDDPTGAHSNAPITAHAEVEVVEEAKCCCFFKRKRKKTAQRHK

[11] = molecular target: T3, Protein kinase C iota type (Homo sapiens) (UniProt P41743); assay: Residual activity of PKCiota at 0.1 uM by microplate scintillation counting
T3 sequence (whole entry): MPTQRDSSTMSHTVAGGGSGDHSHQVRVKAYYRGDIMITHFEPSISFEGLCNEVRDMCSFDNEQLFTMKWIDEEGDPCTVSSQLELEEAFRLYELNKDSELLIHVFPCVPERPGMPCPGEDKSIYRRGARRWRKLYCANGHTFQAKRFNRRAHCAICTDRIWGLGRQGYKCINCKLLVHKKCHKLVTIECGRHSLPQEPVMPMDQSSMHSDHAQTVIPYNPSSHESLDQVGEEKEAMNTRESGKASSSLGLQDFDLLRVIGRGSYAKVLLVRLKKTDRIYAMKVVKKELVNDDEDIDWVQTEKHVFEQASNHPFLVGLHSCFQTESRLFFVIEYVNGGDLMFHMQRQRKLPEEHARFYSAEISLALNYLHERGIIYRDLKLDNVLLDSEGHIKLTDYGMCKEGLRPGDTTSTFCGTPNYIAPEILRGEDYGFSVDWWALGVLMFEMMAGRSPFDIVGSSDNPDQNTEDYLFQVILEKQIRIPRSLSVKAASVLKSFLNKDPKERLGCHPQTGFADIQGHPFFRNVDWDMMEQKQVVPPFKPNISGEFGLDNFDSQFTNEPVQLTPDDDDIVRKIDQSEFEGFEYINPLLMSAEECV

[12] = molecular target: High affinity nerve growth factor receptor (Homo sapiens) (UniProt P04629); assay: Residual activity of TRK-A at 10 uM by microplate scintillation counting
Sequence of High affinity nerve growth factor receptor (Homo sapiens) (P04629 33-796 limits assumed): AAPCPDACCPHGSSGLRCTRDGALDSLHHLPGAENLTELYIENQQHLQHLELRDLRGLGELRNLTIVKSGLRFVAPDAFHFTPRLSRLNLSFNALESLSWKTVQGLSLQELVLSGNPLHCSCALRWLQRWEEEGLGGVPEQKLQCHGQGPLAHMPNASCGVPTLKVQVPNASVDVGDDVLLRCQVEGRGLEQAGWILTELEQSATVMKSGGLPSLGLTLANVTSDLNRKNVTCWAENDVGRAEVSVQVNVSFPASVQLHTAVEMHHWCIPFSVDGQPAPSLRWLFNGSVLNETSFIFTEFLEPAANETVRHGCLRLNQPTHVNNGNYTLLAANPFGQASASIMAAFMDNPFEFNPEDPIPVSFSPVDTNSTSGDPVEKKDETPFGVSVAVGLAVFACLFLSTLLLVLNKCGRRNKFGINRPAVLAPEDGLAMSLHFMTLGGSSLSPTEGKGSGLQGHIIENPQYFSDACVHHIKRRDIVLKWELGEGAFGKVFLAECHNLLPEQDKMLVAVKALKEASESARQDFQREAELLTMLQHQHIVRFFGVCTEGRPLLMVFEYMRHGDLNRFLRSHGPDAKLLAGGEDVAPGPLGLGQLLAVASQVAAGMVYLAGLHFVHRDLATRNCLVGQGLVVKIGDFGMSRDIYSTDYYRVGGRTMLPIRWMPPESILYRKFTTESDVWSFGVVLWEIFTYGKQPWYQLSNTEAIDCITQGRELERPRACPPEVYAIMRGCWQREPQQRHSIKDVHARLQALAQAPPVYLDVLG

Row | SMILES | residual activity [1] [%] | residual activity [2] [%] | residual activity [3] [%] | residual activity [4] [%] | residual activity [5] [%] | residual activity [6] [%] | residual activity [7] [%] | residual activity [8] [%] | residual activity [9] [%] | residual activity [10] [%] | residual activity [11] [%] | residual activity [12] [%]
1 | COc1cc2c(Oc3ccc(-c4nc5ccccc5s4)cc3F)ncnc2cc1OCCCN1CCN(C)CC1 | 134 | 93 | 53 | 104 | 57 | 116 | 86 | 93 | 30 | 100 | 87 | 34
2 | COc1cc2c(Oc3ccc(-c4nc5ccccc5s4)cc3)ncnc2cc1OCCCN1CCCC1 | 102 | 102 | 74 | 124 | 73 | 135 | 98 | 93 | 15 | 84 | 102 | 55
3 | COc1cc2c(Oc3ccc(-c4nc5ccccc5s4)cc3)ncnc2cc1OCCCN1CCN(C)CC1 | 124 | 103 | 59 | 104 | 61 | 109 | 96 | 103 | 20 | 102 | 105 | 81

From ChEMBL document CHEMBL1152560, “Substituted 2-arylbenzothiazoles as kinase inhibitors: hit-to-lead optimization” (Bioorg Med Chem, 2009)
